Patent publication US20060009478A1, “Methods for the treatment of back pain” (priority 2003, published 2006)

System: patients with moderate to severe chronic low back pain
Experiment: Short Opiate Withdrawal Scale (SOWS), low back pain study
Conditions: for SOWS change from baseline, MAX / SOWS change from baseline, MEAN(SD) / SOWS change from baseline, MEDIAN / SOWS change from baseline, MIN / SOWS score, MAX / SOWS score, MEAN(SD) / SOWS score, MEDIAN / SOWS score, MIN / SOWS change from baseline, MAXIMUM / SOWS change from baseline, MINIMUM / SOWS score, MAXIMUM / SOWS score, MINIMUM: ITT
[1] = all patients, change from baseline to day 1
[2] = all patients, change from baseline to day 2
[3] = all patients, change from baseline to day 3
[4] = all patients, change from baseline to day 4
[5] = all patients, last dose date (baseline)
[6] = all patients, opioid withdrawal monitoring day 1
[7] = all patients, opioid withdrawal monitoring day 2
[8] = all patients, opioid withdrawal monitoring day 3
[9] = all patients, opioid withdrawal monitoring day 4
[10] = patients with <4 weeks of dosing, change from baseline to day 1
[11] = patients with <4 weeks of dosing, change from baseline to day 2
[12] = patients with <4 weeks of dosing, change from baseline to day 3
[13] = patients with <4 weeks of dosing, change from baseline to day 4
[14] = patients with <4 weeks of dosing, last dose date (baseline)
[15] = patients with <4 weeks of dosing, opioid withdrawal monitoring day 1
[16] = patients with <4 weeks of dosing, opioid withdrawal monitoring day 2
[17] = patients with <4 weeks of dosing, opioid withdrawal monitoring day 3
[18] = patients with <4 weeks of dosing, opioid withdrawal monitoring day 4
[19] = patients with ≧4 weeks of dosing, change from baseline to day 1
[20] = patients with ≧4 weeks of dosing, change from baseline to day 2
[21] = patients with ≧4 weeks of dosing, change from baseline to day 3
[22] = patients with ≧4 weeks of dosing, change from baseline to day 4
[23] = patients with ≧4 weeks of dosing, last dose date (baseline)
[24] = patients with ≧4 weeks of dosing, opioid withdrawal monitoring day 1
[25] = patients with ≧4 weeks of dosing, opioid withdrawal monitoring day 2
[26] = patients with ≧4 weeks of dosing, opioid withdrawal monitoring day 3
[27] = patients with ≧4 weeks of dosing, opioid withdrawal monitoring day 4

COc1ccc2c3c1O[C@H]1C(=O)CC[C@@]4(O)[C@@H](C2)N(C)CC[C@]314 [OXY QID, oxycodone] was tested, and the “SOWS change from baseline, MAX” value [1] was 1.9, the “SOWS change from baseline, MEAN(SD)” value [1] was 0.3 (0.47) and the “SOWS change from baseline, MEDIAN” value [1] was 0.2. For the same compound, the “SOWS change from baseline, MIN” value [1] was −0.7, the “SOWS change from baseline, MAX” value [2] was 2.4 and the “SOWS change from baseline, MEAN(SD)” value [2] was 0.3 (0.53). The “SOWS change from baseline, MEDIAN” value [2] was 0.2, the “SOWS change from baseline, MIN” value [2] was −1.1 and the “SOWS change from baseline, MAX” value [3] was 1.7. For the same compound, the “SOWS change from baseline, MEAN(SD)” value [3] was 0.2 (0.48), the “SOWS change from baseline, MEDIAN” value [3] was 0.2 and the “SOWS change from baseline, MIN” value [3] was −1.1. For the same compound, the “SOWS change from baseline, MAX” value [4] was 2.7, the “SOWS change from baseline, MEAN(SD)” value [4] was 0.2 (0.54) and the “SOWS change from baseline, MEDIAN” value [4] was 0.1. For the same compound, the “SOWS change from baseline, MIN” value [4] was −1.1, the “SOWS score, MAX” value [5] was 1.5 and the “SOWS score, MEAN(SD)” value [5] was 0.3 (0.36). For the same compound, the “SOWS score, MEDIAN” value [5] was 0.2, the “SOWS score, MIN” value [5] was 0.0 and the “SOWS score, MAX” value [6] was 2.5. The “SOWS score, MEAN(SD)” value [6] was 0.5 (0.52), the “SOWS score, MEDIAN” value [6] was 0.4 and the “SOWS score, MIN” value [6] was 0.0. The “SOWS score, MAX” value [7] was 2.5, the “SOWS score, MEAN(SD)” value [7] was 0.5 (0.54) and the “SOWS score, MEDIAN” value [7] was 0.4. The “SOWS score, MIN” value [7] was 0.0, the “SOWS score, MAX” value [8] was 2.2 and the “SOWS score, MEAN(SD)” value [8] was 0.5 (0.53). The “SOWS score, MEDIAN” value [8] was 0.4, the “SOWS score, MIN” value [8] was 0.0 and the “SOWS score, MAX” value [9] was 2.7. For the same compound, the “SOWS score, MEAN(SD)” value [9] was 0.4 (0.54), the “SOWS score, MEDIAN” value [9] was 0.3 and the “SOWS score, MIN” value [9] was 0.0. The “SOWS change from baseline, MAX” value [10] was 0.2, the “SOWS change from baseline, MEAN(SD)” value [10] was 0.0 (0.16) and the “SOWS change from baseline, MEDIAN” value [10] was 0.0. For the same compound, the “SOWS change from baseline, MIN” value [10] was −0.2, the “SOWS change from baseline, MAX” value [11] was 1.3 and the “SOWS change from baseline, MEAN(SD)” value [11] was 0.2 (0.66). For the same compound, the “SOWS change from baseline, MEDIAN” value [11] was 0.1, the “SOWS change from baseline, MIN” value [11] was −0.5 and the “SOWS change from baseline, MAX” value [12] was 1.3. The “SOWS change from baseline, MEAN(SD)” value [12] was 0.2 (0.67), the “SOWS change from baseline, MEDIAN” value [12] was 0.0 and the “SOWS change from baseline, MIN” value [12] was −0.5. The “SOWS change from baseline, MAX” value [13] was 0.8, the “SOWS change from baseline, MEAN(SD)” value [13] was 0.2 (0.41) and the “SOWS change from baseline, MEDIAN” value [13] was 0.1. The “SOWS change from baseline, MIN” value [13] was −0.1, the “SOWS score, MAX” value [14] was 0.7 and the “SOWS score, MEAN(SD)” value [14] was 0.3 (0.29). For the same compound, the “SOWS score, MEDIAN” value [14] was 0.2, the “SOWS score, MIN” value [14] was 0.0 and the “SOWS score, MAX” value [15] was 0.9. The “SOWS score, MEAN(SD)” value [15] was 0.2 (0.27), the “SOWS score, MEDIAN” value [15] was 0.1 and the “SOWS score, MIN” value [15] was 0.0. The “SOWS score, MAX” value [16] was 1.3, the “SOWS score, MEAN(SD)” value [16] was 0.2 (0.38) and the “SOWS score, MEDIAN” value [16] was 0.0. The “SOWS score, MIN” value [16] was 0.0, the “SOWS score, MAX” value [17] was 1.3 and the “SOWS score, MEAN(SD)” value [17] was 0.2 (0.39). For the same compound, the “SOWS score, MEDIAN” value [17] was 0.0, the “SOWS score, MIN” value [17] was 0.0 and the “SOWS score, MAX” value [18] was 0.8. For the same compound, the “SOWS score, MEAN(SD)” value [18] was 0.1 (0.26), the “SOWS score, MEDIAN” value [18] was 0.0 and the “SOWS score, MIN” value [18] was 0.0. The “SOWS change from baseline, MAXIMUM” value [19] was 1.9, the “SOWS change from baseline, MEAN(SD)” value [19] was 0.3 (0.48) and the “SOWS change from baseline, MEDIAN” value [19] was 0.2. The “SOWS change from baseline, MINIMUM” value [19] was −0.7, the “SOWS change from baseline, MAXIMUM” value [20] was 2.4 and the “SOWS change from baseline, MEAN(SD)” value [20] was 0.3 (0.52). The “SOWS change from baseline, MEDIAN” value [20] was 0.2, the “SOWS change from baseline, MINIMUM” value [20] was −1.1 and the “SOWS change from baseline, MAXIMUM” value [21] was 1.7. The “SOWS change from baseline, MEAN(SD)” value [21] was 0.3 (0.48), the “SOWS change from baseline, MEDIAN” value [21] was 0.2 and the “SOWS change from baseline, MINIMUM” value [21] was −1.1. The “SOWS change from baseline, MAXIMUM” value [22] was 2.7, the “SOWS change from baseline, MEAN(SD)” value [22] was 0.2 (0.55) and the “SOWS change from baseline, MEDIAN” value [22] was 0.1. For the same compound, the “SOWS change from baseline, MINIMUM” value [22] was −1.1, the “SOWS score, MAXIMUM” value [23] was 1.5 and the “SOWS score, MEAN(SD)” value [23] was 0.3 (0.37). The “SOWS score, MEDIAN” value [23] was 0.2, the “SOWS score, MINIMUM” value [23] was 0.0 and the “SOWS score, MAXIMUM” value [24] was 2.5. For the same compound, the “SOWS score, MEAN(SD)” value [24] was 0.5 (0.53), the “SOWS score, MEDIAN” value [24] was 0.4 and the “SOWS score, MINIMUM” value [24] was 0.0. The “SOWS score, MAXIMUM” value [25] was 2.5, the “SOWS score, MEAN(SD)” value [25] was 0.6 (0.54) and the “SOWS score, MEDIAN” value [25] was 0.4. The “SOWS score, MINIMUM” value [25] was 0.0, the “SOWS score, MAXIMUM” value [26] was 2.2 and the “SOWS score, MEAN(SD)” value [26] was 0.6 (0.53). For the same compound, the “SOWS score, MEDIAN” value [26] was 0.4, the “SOWS score, MINIMUM” value [26] was 0.0 and the “SOWS score, MAXIMUM” value [27] was 2.7. The “SOWS score, MEAN(SD)” value [27] was 0.5 (0.55), the “SOWS score, MEDIAN” value [27] was 0.3 and the “SOWS score, MINIMUM” value [27] was 0.0. For the same compound, the “Mean SOWS score in the first 24 hours following drug discontinuation” value (patients with ≧4 weeks of dosing, p<0.01) was 2.6.
